Source: ChEMBL document CHEMBL4002647, “BMS-933043, a Selective α7 nAChR Partial Agonist for the Treatment of Cognitive Deficits Associated with Schizophrenia” (ACS Med Chem Lett, 2017)
Activity calls are given as the source filed them. No cut-off for these calls is given here.

How the values were obtained:
[1] = Total plasma clearance in rat at 1 mg/kg, iv administered as 5 mins infusion; format: ADME, organism-based
[2] = target: Muscarinic acetylcholine receptor M5 (Homo sapiens) (UniProt P08912); assay: Activity at human muscarinic M5 receptor
Chain of Muscarinic acetylcholine receptor M5 (Homo sapiens) (P08912 whole entry): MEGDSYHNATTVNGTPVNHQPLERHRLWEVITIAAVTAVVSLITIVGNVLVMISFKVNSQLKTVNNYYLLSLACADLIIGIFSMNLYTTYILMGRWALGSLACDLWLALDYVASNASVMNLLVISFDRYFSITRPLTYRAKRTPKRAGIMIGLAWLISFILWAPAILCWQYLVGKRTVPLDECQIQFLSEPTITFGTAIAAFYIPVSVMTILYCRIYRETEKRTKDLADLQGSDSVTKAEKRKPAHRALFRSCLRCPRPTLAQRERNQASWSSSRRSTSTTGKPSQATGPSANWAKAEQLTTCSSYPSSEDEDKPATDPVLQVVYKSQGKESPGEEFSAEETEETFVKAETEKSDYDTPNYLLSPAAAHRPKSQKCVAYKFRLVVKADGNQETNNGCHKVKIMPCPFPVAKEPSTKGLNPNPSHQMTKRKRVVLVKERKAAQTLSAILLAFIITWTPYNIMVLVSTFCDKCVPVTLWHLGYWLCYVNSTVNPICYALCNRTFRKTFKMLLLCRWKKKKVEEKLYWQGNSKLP

Cytochrome P450 2D6 = Cytochrome P450 2D6 (Homo sapiens, UniProt P10635); assay: Inhibition of recombinant human CYP2D6 using fluorogenic substrate preincubated for 30 mins and measured after 20 to 60 mins in presence of NADPH regenerating system by fluorescence assay; format: ADME
[3] = Total plasma clearance in mouse at 1 mg/kg, iv administered as 5 mins infusion; format: ADME, organism-based
[4] = AUC in mouse at 1 mg/kg, iv administered as 5 mins infusion; format: ADME, organism-based; conditions: in vivo
[5] = Fraction unbound in monkey plasma at 10 uM after 4 hrs by equilibrium dialysis method; format: ADME, cell-free, Macaca mulatta; conditions: rhesus monkey
[6] = Volume of distribution at steady state in dog at 1 mg/kg, iv administered as 5 mins infusion; format: ADME, organism-based, Canis lupus familiaris; conditions: in vivo, read-out: Vdss
[7] = target: T1, Neuronal acetylcholine receptor subunit alpha-7 (Homo sapiens, UniProt P36544); assay: Agonist activity at human alpha7 nAChR expressed in HEK293 cells co-expressing human RIC3 assessed as area under current curve at 10 uM at holding potential of -90 mV by whole-cell voltage clamp electrophysiology method relative to acetylcholine; format: cell-based
T1 sequence (P36544 whole entry): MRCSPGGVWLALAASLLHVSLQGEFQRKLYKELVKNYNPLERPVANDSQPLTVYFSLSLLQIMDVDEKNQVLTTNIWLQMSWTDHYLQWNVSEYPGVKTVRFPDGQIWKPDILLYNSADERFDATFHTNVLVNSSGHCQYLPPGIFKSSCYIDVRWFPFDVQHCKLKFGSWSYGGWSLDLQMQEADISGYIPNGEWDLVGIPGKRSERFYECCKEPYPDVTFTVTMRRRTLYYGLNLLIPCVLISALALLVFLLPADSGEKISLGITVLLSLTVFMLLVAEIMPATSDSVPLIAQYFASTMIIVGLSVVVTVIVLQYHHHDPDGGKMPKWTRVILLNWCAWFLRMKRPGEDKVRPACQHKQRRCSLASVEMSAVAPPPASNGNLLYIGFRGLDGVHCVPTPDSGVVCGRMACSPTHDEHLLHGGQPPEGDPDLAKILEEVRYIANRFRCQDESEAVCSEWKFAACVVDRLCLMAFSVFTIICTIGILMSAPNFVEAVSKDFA

[8] = Metabolic stability in mouse liver microsomes assessed as compound remaining at 3 uM after 10 mins by LC-MS/MS analysis; format: ADME, microsome; conditions: read-out: Stability
[9] = Oral bioavailability in cynomolgus monkey at 5 mg/kg; format: ADME, organism-based, Macaca fascicularis; conditions: in vivo
[10] = Metabolic stability in dog liver microsomes assessed as compound remaining at 3 uM after 10 mins by LC-MS/MS analysis; format: ADME, Canis lupus familiaris, microsome; conditions: read-out: Stability
[11] = Total plasma clearance in cynomolgus monkey at 1 mg/kg, iv administered as 5 mins infusion; format: ADME, organism-based, Macaca fascicularis
Cytochrome P450 2C8 = Cytochrome P450 2C8 (Homo sapiens, UniProt P10632); assay: Inhibition of recombinant human CYP2C8 using fluorogenic substrate preincubated for 30 mins and measured after 20 to 60 mins in presence of NADPH regenerating system by fluorescence assay; format: ADME
Cytochrome P450 2B6 = Cytochrome P450 2B6 (Homo sapiens, UniProt P20813); assay: Inhibition of recombinant human CYP2B6 using fluorogenic substrate preincubated for 30 mins and measured after 20 to 60 mins in presence of NADPH regenerating system by fluorescence assay; format: ADME
Chain of Cytochrome P450 2B6 (P20813 whole entry, the tested form may be a part): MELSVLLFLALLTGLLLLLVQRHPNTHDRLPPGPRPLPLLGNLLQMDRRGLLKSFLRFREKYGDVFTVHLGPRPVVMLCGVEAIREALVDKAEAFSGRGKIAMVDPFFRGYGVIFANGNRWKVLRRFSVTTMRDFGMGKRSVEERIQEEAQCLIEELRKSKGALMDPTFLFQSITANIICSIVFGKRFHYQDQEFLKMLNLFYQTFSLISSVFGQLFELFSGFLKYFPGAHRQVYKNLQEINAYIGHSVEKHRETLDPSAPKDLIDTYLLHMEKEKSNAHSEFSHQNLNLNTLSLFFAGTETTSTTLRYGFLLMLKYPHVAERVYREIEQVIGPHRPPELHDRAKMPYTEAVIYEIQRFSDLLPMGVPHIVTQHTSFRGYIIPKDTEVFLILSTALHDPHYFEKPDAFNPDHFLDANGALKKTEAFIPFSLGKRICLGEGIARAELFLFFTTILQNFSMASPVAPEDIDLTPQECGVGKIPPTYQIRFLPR

[12] = Ratio of drug level in mouse brain to plasma at 1 mg/kg, iv administered as 5 mins infusion after 30 mins; format: ADME, organism-based; conditions: brain and plasma, read-out: BPR
[13] = Metabolic stability in rat liver microsomes assessed as compound remaining at 3 uM after 10 mins by LC-MS/MS analysis; format: ADME, microsome; conditions: read-out: Stability
Cytochrome P450 3A4 [14] = target: T2, Cytochrome P450 3A4 (Homo sapiens, UniProt P08684); assay: Inhibition of recombinant human CYP3A4 using fluorogenic substrate BZR preincubated for 30 mins and measured after 20 to 60 mins in presence of NADPH regenerating system by fluorescence assay; format: ADME
T2 sequence (P08684 whole entry): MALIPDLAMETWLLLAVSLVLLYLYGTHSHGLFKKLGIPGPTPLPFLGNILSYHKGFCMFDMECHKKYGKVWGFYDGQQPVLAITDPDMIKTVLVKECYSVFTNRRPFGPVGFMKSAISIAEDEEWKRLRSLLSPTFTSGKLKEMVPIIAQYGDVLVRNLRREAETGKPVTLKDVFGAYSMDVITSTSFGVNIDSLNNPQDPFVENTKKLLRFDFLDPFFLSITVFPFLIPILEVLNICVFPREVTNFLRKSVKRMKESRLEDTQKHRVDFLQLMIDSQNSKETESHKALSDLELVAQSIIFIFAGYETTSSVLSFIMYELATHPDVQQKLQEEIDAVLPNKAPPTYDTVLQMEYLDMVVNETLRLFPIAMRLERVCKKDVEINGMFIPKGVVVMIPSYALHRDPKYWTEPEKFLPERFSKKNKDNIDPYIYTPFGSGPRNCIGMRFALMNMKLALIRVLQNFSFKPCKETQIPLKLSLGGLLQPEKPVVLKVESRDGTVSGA

[15] = Fraction unbound in dog plasma at 10 uM after 4 hrs by equilibrium dialysis method; format: ADME, cell-free, Canis lupus familiaris
Cytochrome P450 3A4 [16] = target: T2, Cytochrome P450 3A4; assay: Inhibition of recombinant human CYP3A4 using fluorogenic substrate BFC preincubated for 30 mins and measured after 20 to 60 mins in presence of NADPH regenerating system by fluorescence assay; format: ADME
[17] = target: Neuronal acetylcholine receptor; alpha3/beta4 (Rattus norvegicus, UniProt P04757+P12392); assay: Agonist activity at rat alpha3beta4 nAChR expressed in HEK293 cells assessed as increase in Ca2+ flux by Fluo-4 AM dye based FLIPR assay; format: cell-based
[18] = Oral bioavailability in mouse at 10 mg/kg; format: ADME, organism-based; conditions: in vivo
[19] = Volume of distribution at steady state in mouse at 1 mg/kg, iv administered as 5 mins infusion; format: ADME, organism-based; conditions: in vivo, read-out: Vdss
[20] = Cmax in dog at 5 mg/kg, po; format: ADME, organism-based, Canis lupus familiaris; design: dose 5 mg/kg, route oral; conditions: in vivo
[21] = AUC in cynomolgus monkey at 1 mg/kg, iv administered as 5 mins infusion; format: ADME, organism-based, Macaca fascicularis; conditions: in vivo
[22] = Fraction unbound in rat plasma at 10 uM after 4 hrs by equilibrium dialysis method; format: ADME, cell-free
[23] = AUC in dog at 1 mg/kg, iv administered as 5 mins infusion; format: ADME, organism-based, Canis lupus familiaris; conditions: in vivo
[24] = Cmax in rat at 10 mg/kg, po; format: ADME, organism-based; design: dose 10 mg/kg, route oral; conditions: in vivo
Mus musculus [25] = assay: Cognitive enhancing effect in C57Bl/6 mouse assessed as time spent on exploring novel objects at 0.1 to 10 mg/kg, sc administered 30 mins prior to test and measured after 24 hrs by novel object recognition test; format: functional, organism-based
[26] = target: T3, Neuronal acetylcholine receptor subunit alpha-7 (Rattus norvegicus, UniProt Q05941); assay: Agonist activity at rat alpha7 nAChR expressed in HEK293 cells assessed as increase in Ca2+ flux by Fluo-4 AM dye based FLIPR assay; format: cell-based
T3 sequence (Q05941 whole entry): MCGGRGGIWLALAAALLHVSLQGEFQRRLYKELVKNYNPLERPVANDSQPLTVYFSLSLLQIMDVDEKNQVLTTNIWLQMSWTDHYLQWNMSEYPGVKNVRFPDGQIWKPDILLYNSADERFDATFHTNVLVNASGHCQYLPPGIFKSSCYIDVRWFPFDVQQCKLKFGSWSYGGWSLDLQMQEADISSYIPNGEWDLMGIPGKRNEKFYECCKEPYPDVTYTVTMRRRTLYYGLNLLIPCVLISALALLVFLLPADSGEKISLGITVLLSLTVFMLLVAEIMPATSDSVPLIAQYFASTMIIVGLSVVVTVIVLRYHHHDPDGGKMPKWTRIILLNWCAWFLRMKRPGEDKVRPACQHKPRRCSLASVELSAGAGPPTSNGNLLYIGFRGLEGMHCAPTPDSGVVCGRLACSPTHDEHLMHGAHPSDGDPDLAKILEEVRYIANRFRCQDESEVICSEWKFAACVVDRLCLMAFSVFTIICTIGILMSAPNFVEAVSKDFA

[27] = target: Neuronal acetylcholine receptor; alpha4/beta2 (Rattus norvegicus, UniProt P09483+P12390); assay: Agonist activity at rat alpha4beta2 nAChR expressed in HEK293 cells assessed as increase in Ca2+ flux by Fluo-4 AM dye based FLIPR assay; format: cell-based
[28] = Fraction unbound in mouse plasma at 10 uM after 4 hrs by equilibrium dialysis method; format: ADME, cell-free
[29] = Cmax in cynomolgus monkey at 5 mg/kg, po; format: ADME, organism-based, Macaca fascicularis; design: dose 5 mg/kg, route oral; conditions: in vivo
[30] = Metabolic stability in human liver microsomes assessed as compound remaining at 3 uM after 10 mins by LC-MS/MS analysis; format: ADME, microsome; conditions: read-out: Stability
[31] = target: Muscarinic acetylcholine receptor M4 (Homo sapiens) (UniProt P08173); assay: Activity at human muscarinic M4 receptor
[32] = Cmax in mouse at 10 mg/kg, po; format: ADME, organism-based; design: dose 10 mg/kg, route oral; conditions: in vivo
[33] = target: Muscarinic acetylcholine receptor M3 (Homo sapiens) (UniProt P20309); assay: Activity at human muscarinic M3 receptor
[34] = target: Muscarinic acetylcholine receptor M1 (Homo sapiens) (UniProt P11229); assay: Activity at human muscarinic M1 receptor
Chain of Muscarinic acetylcholine receptor M1 (Homo sapiens) (P11229 whole entry): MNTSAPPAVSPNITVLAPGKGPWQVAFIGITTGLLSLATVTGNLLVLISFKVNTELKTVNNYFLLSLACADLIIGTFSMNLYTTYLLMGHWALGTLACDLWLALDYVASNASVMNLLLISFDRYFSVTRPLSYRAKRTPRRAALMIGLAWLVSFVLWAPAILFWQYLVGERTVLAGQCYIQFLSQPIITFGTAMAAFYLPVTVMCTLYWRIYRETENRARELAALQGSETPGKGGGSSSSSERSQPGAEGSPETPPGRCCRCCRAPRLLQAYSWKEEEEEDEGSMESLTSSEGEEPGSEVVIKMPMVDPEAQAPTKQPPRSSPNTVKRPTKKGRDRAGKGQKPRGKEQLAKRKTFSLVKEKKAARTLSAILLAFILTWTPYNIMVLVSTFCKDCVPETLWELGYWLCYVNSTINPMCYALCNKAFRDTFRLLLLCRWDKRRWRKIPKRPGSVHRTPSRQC

[35] = Metabolic stability in monkey liver microsomes assessed as compound remaining at 3 uM after 10 mins by LC-MS/MS analysis; format: ADME, Macaca mulatta, microsome; conditions: rhesus monkey, read-out: Stability
[36] = Volume of distribution at steady state in rat at 1 mg/kg, iv administered as 5 mins infusion; format: ADME, organism-based; conditions: in vivo, read-out: Vdss
[37] = Fraction unbound in human plasma at 10 uM after 4 hrs by equilibrium dialysis method; format: ADME, cell-free
[38] = Half life in mouse at 1 mg/kg, iv administered as 5 mins infusion; format: ADME, organism-based; conditions: in vivo
[39] = Drug level in C57Bl/6 mouse plasma at 0.1 mg/kg, sc after 30 mins; format: ADME, organism-based
[40] = target: T1, Neuronal acetylcholine receptor subunit alpha-7; assay: Agonist activity at human alpha7 nAChR expressed in HEK293 cells co-expressing human RIC3 assessed as induction of peak current amplitutde at 10 uM at holding potential of -90 mV by whole-cell voltage clamp electrophysiology method relative to acetylcholine; format: cell-based
[41] = Half life in cynomolgus monkey at 1 mg/kg, iv administered as 5 mins infusion; format: ADME, organism-based, Macaca fascicularis; conditions: in vivo
[42] = AUC in rat at 1 mg/kg, iv administered as 5 mins infusion; format: ADME, organism-based; conditions: in vivo
[43] = AUC in rat at 10 mg/kg, po; format: ADME, organism-based; conditions: in vivo
[44] = AUC in mouse at 10 mg/kg, po; format: ADME, organism-based; conditions: in vivo
[45] = AUC in dog at 5 mg/kg, po; format: ADME, organism-based, Canis lupus familiaris; conditions: in vivo
[46] = target: T1, Neuronal acetylcholine receptor subunit alpha-7; assay: Agonist activity at human alpha7 nAChR expressed in HEK293 cells co-expressing human RIC3 assessed as area under current curve at holding potential of -90 mV by whole-cell voltage clamp electrophysiology method; format: cell-based
Mus musculus [47] = assay: Cognitive enhancing effect in C57Bl/6 mouse assessed as time spent on exploring novel objects administered subcutaneously 30 mins prior to test and measured after 24 hrs by novel object recognition test; format: functional; conditions: C57Bl/6, sc, read-out: MED
[48] = target: T3, Neuronal acetylcholine receptor subunit alpha-7; assay: Agonist activity at rat alpha7 nAChR expressed in HEK293 cells co-expressing human RIC3 assessed as area under current curve at holding potential of -90 mV by whole-cell voltage clamp electrophysiology method; format: cell-based
[49] = Half life in rat at 1 mg/kg, iv administered as 5 mins infusion; format: ADME, organism-based; conditions: in vivo
[50] = Oral bioavailability in dog at 5 mg/kg; format: ADME, organism-based, Canis lupus familiaris; conditions: in vivo
[51] = Total plasma clearance in dog at 1 mg/kg, iv administered as 5 mins infusion; format: ADME, organism-based, Canis lupus familiaris
[52] = Fraction unbound in C57Bl/6 mouse plasma at 0.1 mg/kg, sc after 30 mins; format: ADME, organism-based
[53] = Half life in dog at 1 mg/kg, iv administered as 5 mins infusion; format: ADME, organism-based, Canis lupus familiaris; conditions: in vivo
[54] = Volume of distribution at steady state in cynomolgus monkey at 1 mg/kg, iv administered as 5 mins infusion; format: ADME, organism-based, Macaca fascicularis; conditions: in vivo, read-out: Vdss
[55] = target: Nicotinic acetylcholine receptor alpha-1/beta-1/delta/epsilon (Rattus norvegicus, UniProt P09660+P25108+P25109+P25110); assay: Agonist activity at rat alpha1beta1delta1epsilon nAChR expressed in HEK293 cells assessed as increase in Ca2+ flux by Fluo-4 AM dye based FLIPR assay; format: cell-based
Chain of Nicotinic acetylcholine receptor alpha-1/beta-1/delta/epsilon (P25109 whole entry): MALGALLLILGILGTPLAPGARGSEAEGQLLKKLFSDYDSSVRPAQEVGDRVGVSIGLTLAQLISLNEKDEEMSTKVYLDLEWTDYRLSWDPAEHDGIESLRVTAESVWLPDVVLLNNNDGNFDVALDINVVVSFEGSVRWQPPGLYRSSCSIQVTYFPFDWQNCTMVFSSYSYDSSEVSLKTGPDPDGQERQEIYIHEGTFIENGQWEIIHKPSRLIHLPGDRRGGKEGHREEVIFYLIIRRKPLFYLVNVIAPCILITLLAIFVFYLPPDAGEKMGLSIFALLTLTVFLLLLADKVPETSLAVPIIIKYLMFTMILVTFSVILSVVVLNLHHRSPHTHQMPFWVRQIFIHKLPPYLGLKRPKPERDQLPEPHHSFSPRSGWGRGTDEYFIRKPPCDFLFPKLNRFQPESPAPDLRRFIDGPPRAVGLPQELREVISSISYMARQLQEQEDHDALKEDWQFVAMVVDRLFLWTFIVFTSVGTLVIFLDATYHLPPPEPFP
Chain of Nicotinic acetylcholine receptor alpha-1/beta-1/delta/epsilon (P25108 whole entry): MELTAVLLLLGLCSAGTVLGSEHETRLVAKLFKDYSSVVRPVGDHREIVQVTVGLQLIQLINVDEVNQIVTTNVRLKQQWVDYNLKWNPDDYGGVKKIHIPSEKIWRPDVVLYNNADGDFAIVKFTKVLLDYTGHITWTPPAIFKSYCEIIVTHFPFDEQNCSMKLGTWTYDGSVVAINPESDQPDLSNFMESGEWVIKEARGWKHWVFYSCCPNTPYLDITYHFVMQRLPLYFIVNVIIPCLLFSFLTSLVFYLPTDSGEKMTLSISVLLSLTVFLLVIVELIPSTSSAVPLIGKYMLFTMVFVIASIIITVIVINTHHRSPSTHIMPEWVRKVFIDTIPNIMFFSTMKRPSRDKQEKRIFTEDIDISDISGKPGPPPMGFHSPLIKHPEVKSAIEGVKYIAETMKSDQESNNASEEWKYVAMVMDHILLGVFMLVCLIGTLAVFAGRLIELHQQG
Chain of Nicotinic acetylcholine receptor alpha-1/beta-1/delta/epsilon (P25110 whole entry): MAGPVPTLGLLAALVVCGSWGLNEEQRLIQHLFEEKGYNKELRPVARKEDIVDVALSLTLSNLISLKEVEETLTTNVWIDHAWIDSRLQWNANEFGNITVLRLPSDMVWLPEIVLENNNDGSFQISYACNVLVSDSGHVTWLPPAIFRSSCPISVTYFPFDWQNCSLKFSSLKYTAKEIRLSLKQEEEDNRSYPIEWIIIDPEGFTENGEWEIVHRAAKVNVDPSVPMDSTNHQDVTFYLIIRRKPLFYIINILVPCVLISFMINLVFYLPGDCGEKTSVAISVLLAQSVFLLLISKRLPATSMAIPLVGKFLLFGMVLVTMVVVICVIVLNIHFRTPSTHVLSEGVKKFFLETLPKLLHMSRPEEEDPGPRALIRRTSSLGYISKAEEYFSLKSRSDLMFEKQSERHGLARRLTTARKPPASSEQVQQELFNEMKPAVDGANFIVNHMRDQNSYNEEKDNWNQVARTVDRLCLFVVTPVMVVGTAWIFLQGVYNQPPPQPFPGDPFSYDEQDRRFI
Chain of Nicotinic acetylcholine receptor alpha-1/beta-1/delta/epsilon (P09660 whole entry): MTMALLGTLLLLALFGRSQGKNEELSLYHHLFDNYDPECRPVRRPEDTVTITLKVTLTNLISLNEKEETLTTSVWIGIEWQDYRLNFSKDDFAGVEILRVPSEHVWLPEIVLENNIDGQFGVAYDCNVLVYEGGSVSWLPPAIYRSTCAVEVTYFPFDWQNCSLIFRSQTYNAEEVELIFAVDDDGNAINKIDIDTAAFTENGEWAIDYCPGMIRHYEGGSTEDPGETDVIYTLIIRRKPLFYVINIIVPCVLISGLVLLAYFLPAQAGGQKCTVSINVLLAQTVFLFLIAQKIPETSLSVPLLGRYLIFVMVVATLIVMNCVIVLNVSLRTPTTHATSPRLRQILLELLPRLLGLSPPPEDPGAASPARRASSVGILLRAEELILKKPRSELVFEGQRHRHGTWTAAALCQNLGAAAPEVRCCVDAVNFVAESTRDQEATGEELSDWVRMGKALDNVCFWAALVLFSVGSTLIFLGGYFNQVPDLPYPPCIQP

[56] = Oral bioavailability in rat at 10 mg/kg; format: ADME, organism-based; conditions: in vivo
[57] = AUC in cynomolgus monkey at 5 mg/kg, po; format: ADME, organism-based, Macaca fascicularis; conditions: in vivo
[58] = Drug level treated with (2R)-N-(6-(1H-Imidazol-1-yl)-4-pyrimidinyl)-4'H-spiro[4-azabicyclo[2.2.2]octane-2,5'-[1,3]oxazol]-2'-amine

c1cn(-c2cc(NC3=NC[C@@]4(CN5CCC4CC5)O3)ncn2)cn1
clearance [1]: 70 mL/min/kg | Activity [2]: inactive | IC50 (Cytochrome P450 2D6): > 30 µM | clearance [3]: 96 mL/min/kg | AUC at 5 min [4]: 0.53 µM·h | fraction unbound at 4 h, 10 µM [5]: 0.87 | Vd [6]: 5.5 L/kg | %max [7]: 78% | remaining at 10 min, 3 µM [8]: 93% | bioavailability [9]: 70% | remaining at 10 min, 3 µM [10]: 98% | clearance [11]: 17 mL/min/kg | IC50 (Cytochrome P450 2C8): > 30 µM | IC50 (Cytochrome P450 2B6): > 30 µM | Kp at 0.5 h [12]: 0.21 | remaining at 10 min, 3 µM [13]: 95% | IC50 (Cytochrome P450 3A4 [14]): > 30 µM | fraction unbound at 4 h, 10 µM [15]: 0.93 | IC50 (Cytochrome P450 3A4 [16]): > 30 µM | EC50 [17]: > 100 µM | bioavailability [18]: 45% | Vd [19]: 7 L/kg | Cmax [20]: 3200 nM | AUC at 5 min [21]: 3 µM·h | fraction unbound at 4 h, 10 µM [22]: 0.87 | AUC at 5 min [23]: 3.4 µM·h | Cmax [24]: 1600 nM | Activity (Mus musculus [25]): Active | EC50 [26]: 0.023 µM | EC50 [27]: > 100 µM | fraction unbound at 4 h, 10 µM [28]: 0.84 | Cmax [29]: 1300 nM | remaining at 10 min, 3 µM [30]: 91% | Activity [31]: inactive | Cmax [32]: 550 nM | Activity [33]: inactive | Activity [34]: inactive | remaining at 10 min, 3 µM [35]: 100% | Vd [36]: 2.9 L/kg | fraction unbound at 4 h, 10 µM [37]: 0.87 | half-life [38]: 1.1 h | concentration at 0.5 h [39]: 52 nM | %max [40]: 24% | half-life [41]: 4.4 h | AUC at 5 min [42]: 0.75 µM·h | AUC [43]: 7.2 µM·h | AUC [44]: 3.2 µM·h | AUC [45]: 19 µM·h | EC50 [46]: 0.3 µM | minimal effective dose (Mus musculus [47]): 0.1 mg/kg | EC50 [48]: 0.1 µM | half-life [49]: 0.7 h | bioavailability [50]: 100% | clearance [51]: 15 mL/min/kg | fraction unbound at 0.5 h [52]: 0.84 | half-life [53]: 5.5 h | Vd [54]: 5.7 L/kg | EC50 [55]: > 100 µM | bioavailability [56]: 97% | AUC [57]: 11 µM·h

[O-][N+]12CCC(CC1)C1(CN=C(Nc3cc(-n4ccnc4)ncn3)O1)C2 (single isomer, unassigned)
EC50 [26]: > 50 µM | Drug metabolism [58]: Metabolite detected
